Where two headings read alike, the source gives them in different places.
Legend:
[1] = format: physicochemical; details: for p-chloroaniline (ppm, HPLC method 1): methanol:acetic acid 8:1 (v/v), 40° C.; for p-chloroaniline (ppm, HPLC method 1), Average: methanol:acetic acid 8:1, 40° C.
Description: HPLCs were acquired on a Waters Alliance 2695 LC system. Column: Kromasil C18, 5 μm, 4.6×250 mm. Flow rate: 1 mL/min. Detector: UV, 254 nm. Mobile phase A: (33:9.5:57.5; v/v/v) 1-octanesulfonic acid sodium salt solution/glacial acetic acid/methanol. The 1-octanesulfonic acid sodium salt solution was prepared dissolving 1.6 g of 1-octanesulfonic acid sodium salt in 330 ml of water and adding 95 ml of glacial acetic acid and 575 ml of methanol. Mobile phase B: methanol. Gradient: 100% A (0-20 min)-85% A (40-65 min)-100% A (70-80 min). Temperature: 30° C. Sample: 10 mg/mL in mobile phase A. Injection volume: 10 μL.
Limit of detection (LOD): 3 ppm of p-chloroaniline.
Two 100 mg aliquots of a sample of chlorhexidine free of potential genotoxicity (Replicates A and B), having a content of p-chloroaniline below 40-50 ppm, a content of each of compounds of Markush formula (IV) (i.e. impurities B-G) below 0.15%, and a total impurities content below 1.5%, as measured by HPLC method 1, were dissolved in 1 mL of a mixture of methanol and acetic acid 8:1 (v/v), and each solution was stored in 5 different closed glass vials at 40° C. These vials were opened after 1, 2, 4, 14, and 25 days of storage, respectively, and the content of p-chloroaniline was measured (HPLC method 1). A linear regression line was calculated from the data obtained in Table 1 (y=2170x-356, R^2=0.991, where “y” represents the measured content of p-chloro aniline in ppm units and “x” represents the degradation time in day units; See FIG. 1).
Three 100 mg aliquots of a sample of chlorhexidine (Replicates C, D and E), having a content of p-chloroaniline of less than 40-50 ppm, a content of each of compounds of Markush formula (IV) (i.e. impurities B-G) higher than 0.15%, and a total impurities content below 2.5-3.0%, as measured by HPLC method 1, were dissolved in 1 mL of a mixture of methanol and acetic acid 8:1 (v/v), and each solution was stored in 2 different closed glass vials at 40° C. These vials were opened after 12 and 19 days of storage, respectively, and the content of p-chloroaniline was measured (HPLC method 1).

[2] = Stability study of aqueous solutions of chlorhexidine digluconate (p-chloroaniline by colorimetric method, European Pharmacopoeia 6.0); format: physicochemical; details: 20% aqueous solution; for p-chloroaniline (ppm, Colorimetry), 3 months: closed vial, protected from light
Description: In the U.S. Pharmacopoeia (First Supplement to the USP 33-NF 28 Reissue, USP Monographs: Chlorhexidine Gluconate Solution) it is described that the digluconate salt of chlorhexidine in aqueous solution should be preserved in tight containers, protected from light, and at controlled room temperature (i.e. about 25° C.). In this regard, the present inventors have observed that a 20% (w/v) aqueous solution of the chlorhexidine digluconate of the invention which is free of potential genotoxicity (i.e. having a content of p-chloroaniline lower than 40-50 ppm, with respect to the chlorhexidine base) can become moderately potentially genotoxic (i.e. showing a content of p-chloroaniline dramatically close to higher than 40-50 ppm) after 3 months of storage at 25° C., and highly potentially genotoxic (i.e. showing a content of p-chloroaniline much higher than 40-50 ppm) after 3 months of storage at 40° C. […] Conversely, when storing the aqueous solution of chlorhexidine digluconate of the invention at 15° C., the free-genotoxic stability (i.e. a content of p-chloroaniline lower than 40-50 ppm) is kept at low values for at least 3 months (See Example 12).
Two samples corresponding to a 20% (v/w) aqueous solution of chlorhexidine digluconate which was prepared from the chlorhexidine of Example 10, were stored in a closed vial, under different temperature conditions (i.e. 15° C., 25° C., and 40° C.) for 3 months in a closed chamber protected from light. The potentially free genotoxicity stability of the samples (i.e. the presence of p-chloroaniline) was measured by the colorimetric method described for measuring p-chloroaniline in chlorhexidine digluconate solution in European Pharmacopoeia 6.0 (page 1501).

[3] = 12 days of storage, sample with impurities B-G higher than 0.15%, 2.64% total impurities
[4] = 19 days of storage, sample with impurities B-G higher than 0.15%, 2.64% total impurities
[5] = 1 day of storage, sample with impurities B-G below 0.15%, 0.54% total impurities
[6] = 2 days of storage, sample with impurities B-G below 0.15%, 0.54% total impurities
[7] = 4 days of storage, sample with impurities B-G below 0.15%, 0.54% total impurities
[8] = 14 days of storage, sample with impurities B-G below 0.15%, 0.54% total impurities
[9] = 25 days of storage, sample with impurities B-G below 0.15%, 0.54% total impurities

Structure (SMILES): N=C(NCCCCCCNC(=N)NC(=N)Nc1ccc(Cl)cc1)NC(=N)Nc1ccc(Cl)cc1 [Replicate C]
- p-chloroaniline (ppm, HPLC method 1) [1, 3]: 33657 ppm
- p-chloroaniline (ppm, HPLC method 1) [1, 4]: 45243 ppm

Structure (SMILES): N=C(NCCCCCCNC(=N)NC(=N)Nc1ccc(Cl)cc1)NC(=N)Nc1ccc(Cl)cc1 [Replicate B]
- p-chloroaniline (ppm, HPLC method 1) [1, 5]: 1,925 ppm
- p-chloroaniline (ppm, HPLC method 1) [1, 6]: 3,609 ppm
- p-chloroaniline (ppm, HPLC method 1) [1, 7]: 7,819 ppm
- p-chloroaniline (ppm, HPLC method 1) [1, 8]: 33,575 ppm
- p-chloroaniline (ppm, HPLC method 1) [1, 9]: 51,656 ppm

Structure (SMILES): N=C(NCCCCCCNC(=N)NC(=N)Nc1ccc(Cl)cc1)NC(=N)Nc1ccc(Cl)cc1 [Replicate A]
- p-chloroaniline (ppm, HPLC method 1) [1, 5]: 1,556 ppm
- p-chloroaniline (ppm, HPLC method 1) [1, 6]: 3,357 ppm
- p-chloroaniline (ppm, HPLC method 1) [1, 7]: 6,284 ppm
- p-chloroaniline (ppm, HPLC method 1) [1, 8]: 33,753 ppm
- p-chloroaniline (ppm, HPLC method 1) [1, 9]: 52,561 ppm

Structure (SMILES): [H]/N=C(\N/C(=N/[H])NCCCCCCNC(=N)NC(=N)Nc1ccc(Cl)cc1)Nc1ccc(Cl)cc1 [chlorhexidine, 1-[amino-[6-[amino-[amino-(4-chlorophenyl)aminomethylidene]aminomethylidene]amino-hexylimino]methyl]imino-N-(4-chlorophenyl)-methanediamine]
- linear regression line, degradation rate towards p-chloroaniline [1]: 2170x-356
- p-chloroaniline (ppm, HPLC method 1), Average ([1]; average of Replicates A and B, 1 day, 0.54% total impurities sample): 1,741 ppm
- p-chloroaniline (ppm, HPLC method 1), Average ([1]; average of Replicates A and B, 2 days, 0.54% total impurities sample): 3,483 ppm
- p-chloroaniline (ppm, HPLC method 1), Average ([1]; average of Replicates A and B, 4 days, 0.54% total impurities sample): 7,052 ppm
- p-chloroaniline (ppm, HPLC method 1), Average ([1]; average of Replicates A and B, 14 days, 0.54% total impurities sample): 33,664 ppm
- p-chloroaniline (ppm, HPLC method 1), Average ([1]; average of Replicates A and B, 25 days, 0.54% total impurities sample): 52,109 ppm
- p-chloroaniline (ppm, HPLC method 1), Average ([1]; average of Replicates C, D and E, 12 days, 2.64% total impurities sample): 33459 ppm
- p-chloroaniline (ppm, HPLC method 1), Average ([1]; average of Replicates C, D and E, 19 days, 2.64% total impurities sample): 46524 ppm

Structure (SMILES): N=C(NCCCCCCNC(=N)NC(=N)Nc1ccc(Cl)cc1)NC(=N)Nc1ccc(Cl)cc1.O=C(O)[C@H](O)[C@@H](O)[C@H](O)[C@H](O)CO.O=C(O)[C@H](O)[C@@H](O)[C@H](O)[C@H](O)CO [chlorhexidine digluconate]
- p-chloroaniline, Increasing (%) ([2]; 3 months at 15° C.): 433%
- p-chloroaniline, Increasing (%) ([2]; 3 months at 25° C.): 1533%
- p-chloroaniline, Increasing (%) ([2]; 3 months at 40° C.): 4233%
- p-chloroaniline (ppm, Colorimetry), Initial ([2]; sample to be stored at 15° C.): 3 ppm
- p-chloroaniline (ppm, Colorimetry), Initial ([2]; sample to be stored at 25° C.): 3 ppm
- p-chloroaniline (ppm, Colorimetry), Initial ([2]; sample to be stored at 40° C.): 3 ppm
- p-chloroaniline (ppm, Colorimetry), 3 months ([2]; storage at 15° C.): 16 ppm
- p-chloroaniline (ppm, Colorimetry), 3 months ([2]; storage at 25° C.): 49 ppm
- p-chloroaniline (ppm, Colorimetry), 3 months ([2]; storage at 40° C.): 130 ppm

Structure (SMILES): N=C(NCCCCCCNC(=N)NC(=N)Nc1ccc(Cl)cc1)NC(=N)Nc1ccc(Cl)cc1 [Replicate D]
- p-chloroaniline (ppm, HPLC method 1) [1, 3]: 33153 ppm
- p-chloroaniline (ppm, HPLC method 1) [1, 4]: 46753 ppm

Structure (SMILES): N=C(NCCCCCCNC(=N)NC(=N)Nc1ccc(Cl)cc1)NC(=N)Nc1ccc(Cl)cc1 [Replicate E]
- p-chloroaniline (ppm, HPLC method 1) [1, 3]: 33568 ppm
- p-chloroaniline (ppm, HPLC method 1) [1, 4]: 47577 ppm
